33 compounds from patent US20240217966A1, “PHARMACEUTICAL COMPOSITION CONTAINING GLP-1 RECEPTOR AGONIST HAVING FUSED RING” (Shionogi & Co., Ltd., priority 2021, published 2024) can be followed below.

This assay has as its target T1, Human GLP-1 receptor (Homo sapiens, UniProt P43220).
T1 construct: expressed in transfected cells
Briefly: Measurement of GLP-1 receptor agonist activity (cAMP assay). Type of assay: cell-based. As to conditions: cAMP increase in GLP-1 R/CHO-K1 cells, 2 nM human GLP-1 (7-36) = 100%, DMSO only = 0%; for Emax: CHO-K1, maximum effect, read-out: Emax. In outline:
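Agonism measured as cAMP accumulation by time-resolved FRET immunoassay in CHO-K1 cells stably expressing human GLP-1 receptor. Cells treated for 1 h at 37 °C with compound and forskolin (400 μM stock), in buffer containing the PDE inhibitors IBMX (0.1 mM) and RO20-1724 (0.2 mM).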
(In general: Changes in cAMP serve as a functional read-out for many G protein-coupled receptors.)

T1 sequence (P43220 24-463): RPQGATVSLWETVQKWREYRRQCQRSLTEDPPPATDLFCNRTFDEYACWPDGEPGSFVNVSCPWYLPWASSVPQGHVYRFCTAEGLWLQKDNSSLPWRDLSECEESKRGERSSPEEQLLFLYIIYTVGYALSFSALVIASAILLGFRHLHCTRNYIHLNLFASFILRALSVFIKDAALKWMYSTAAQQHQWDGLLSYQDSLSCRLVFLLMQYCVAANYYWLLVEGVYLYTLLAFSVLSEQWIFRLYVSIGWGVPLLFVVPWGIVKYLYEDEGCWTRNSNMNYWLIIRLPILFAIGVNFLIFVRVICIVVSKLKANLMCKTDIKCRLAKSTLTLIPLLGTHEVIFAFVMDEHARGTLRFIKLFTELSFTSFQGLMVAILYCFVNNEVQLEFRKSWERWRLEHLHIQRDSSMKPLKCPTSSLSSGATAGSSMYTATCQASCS

As to `C[C@H]1c2cc(OCc3ccc(C4CC4)cc3)c(Cl)cc2CCN1Cc1nc2c(F)cc(C(=O)O)cc2n1C[C@@H]1CCO1` [Compound I-333], the Emax (usually the maximal effect, on the per cent scale that the assay sets) was determined as 116% and the concentration giving a half-maximal response (EC50) (in general, the concentration at which the effect is half-maximal) stood at 8.05 nM.

Regarding `COc1cc(Cl)ccc1COc1cc2c(cc1Cl)CCN(Cc1nc3c(F)cc(C(=O)O)cc3n1C[C@@H]1CCO1)[C@H]2C` [Compound I-334], the maximal effect (Emax) came to 114% and it took 0.223 nM to reach a half-maximal effect (EC50).

Take `C[C@H]1c2cc(OCc3ccc(F)cc3F)c(Cl)cc2CCN1Cc1nc2c(F)cc(C(=O)O)cc2n1C[C@@H]1CCO1` [Compound I-335]: the Emax worked out at 98% and it took 1.23 nM to reach a half-maximal effect (EC50).

On to `C[C@H]1c2cc(OCc3ccc(Cl)cc3F)c(Cl)cc2CCN1Cc1nc2c(F)cc(C(=O)O)cc2n1C[C@@H]1CCO1` [Compound I-336], for which the Emax is 100% and the EC50 turned out to be 0.696 nM.

For the compound `C[C@H]1c2cc(OCc3ccc(Cl)cc3Cl)c(Cl)cc2CCN1Cc1nc2c(F)cc(C(=O)O)cc2n1C[C@@H]1CCO1` [Compound I-337], the Emax worked out at 104% and the concentration giving a half-maximal response (EC50) is 0.325 nM.

In the case of `C[C@H]1c2cc(OCc3cc(F)c(Cl)cc3F)c(Cl)cc2CCN1Cc1nc2c(F)cc(C(=O)O)cc2n1C[C@@H]1CCO1` [Compound I-338], the Emax stood at 100% and a half-maximal effect (EC50) was put at 1.27 nM.

Regarding `C[C@H]1c2cc(OCc3c(F)cc(Cl)cc3F)c(Cl)cc2CCN1Cc1nc2c(F)cc(C(=O)O)cc2n1C[C@@H]1CCO1` [Compound I-339], the Emax was determined as 105% and the EC50 stood at 0.377 nM.

For the compound `COc1cc(C(=O)O)cc2c1nc(CN1CCc3cc(Cl)c(OCc4ccc(C)cc4)cc3[C@@H]1C)n2C[C@@H]1CCO1` [Compound I-340], the maximal response (Emax) amounted to 105% and the half-maximal effective concentration (EC50) was 0.31 nM.

`COc1cc(C(=O)O)cc2c1nc(CN1CCc3cc(Cl)c(OCc4ccc(Cl)cc4)cc3[C@@H]1C)n2C[C@@H]1CCO1` [Compound I-341]: the Emax was 125% and it took 0.236 nM to reach a half-maximal effect (EC50).

For `COc1cc(C(=O)O)cc2c1nc(CN1CCc3cc(Cl)c(OCc4ccc(C5CC5)cc4)cc3[C@@H]1C)n2C[C@@H]1CCO1` [Compound I-342], the Emax came out at 97.3% and the EC50 is 1.95 nM.

As to `COc1cc(Cl)ccc1COc1cc2c(cc1Cl)CCN(Cc1nc3c(OC)cc(C(=O)O)cc3n1C[C@@H]1CCO1)[C@H]2C` [Compound I-343], the Emax was 111% and the concentration giving a half-maximal response (EC50) is 0.063 nM.

With `COc1cc(C(=O)O)cc2c1nc(CN1CCc3cc(Cl)c(OCc4ccc(Cl)cc4F)cc3[C@@H]1C)n2C[C@@H]1CCO1` [Compound I-344], the Emax is 110% and the EC50 stood at 0.0824 nM.

On to `COc1cc(C(=O)O)cc2c1nc(CN1CCc3cc(Cl)c(OCc4ccc(Cl)cc4Cl)cc3[C@@H]1C)n2C[C@@H]1CCO1` [Compound I-345], for which the Emax turned out to be 129% and the EC50 amounted to 0.096 nM.

Consider `COc1cc(C(=O)O)cc2c1nc(CN1CCc3cc(Cl)c(OCc4cc(F)c(Cl)cc4F)cc3[C@@H]1C)n2C[C@@H]1CCO1` [Compound I-346], for which the Emax was determined as 117% and the EC50 was found to be 0.354 nM.

For `Cc1ccc(COc2nc3c(cc2C(F)(F)F)CCN(Cc2nc4ccc(C(=O)O)nc4n2C[C@@H]2CCO2)[C@H]3C)cc1` [Compound I-347], the maximal effect (Emax) was found to be 110% and a half-maximal effect (EC50) was put at 0.241 nM.

For `C[C@H]1c2nc(OCc3ccc(Cl)cc3)c(C(F)(F)F)cc2CCN1Cc1nc2ccc(C(=O)O)nc2n1C[C@@H]1CCO1` [Compound I-348], the Emax is 129% and the EC50 came to 0.206 nM.

On to `C[C@H]1c2nc(OCc3ccc(C4CC4)cc3)c(C(F)(F)F)cc2CCN1Cc1nc2ccc(C(=O)O)nc2n1C[C@@H]1CCO1` [Compound I-349], for which the maximum response (Emax) was determined as 117% and the 50% effective concentration (EC50) is 1.27 nM.

As to `COc1cc(Cl)ccc1COc1nc2c(cc1C(F)(F)F)CCN(Cc1nc3ccc(C(=O)O)nc3n1C[C@@H]1CCO1)[C@H]2C` [Compound I-350], the Emax was 113% and the response was half-maximal at 0.0964 nM (EC50).

Regarding `C[C@H]1c2nc(OCc3ccc(Cl)cc3Cl)c(C(F)(F)F)cc2CCN1Cc1nc2ccc(C(=O)O)nc2n1C[C@@H]1CCO1` [Compound I-351], the Emax is 121% and the EC50 was determined as 0.156 nM.

Turning to `C[C@H]1c2nc(OCc3cc(F)c(Cl)cc3F)c(C(F)(F)F)cc2CCN1Cc1nc2ccc(C(=O)O)nc2n1C[C@@H]1CCO1` [Compound I-352], the Emax was 113% and a half-maximal effect (EC50) was put at 0.122 nM.

With `Cc1ccc(COc2nc3c(cc2C(F)(F)F)CCN(Cc2nc4ccc(C(=O)O)c(F)c4n2C[C@@H]2CCO2)[C@H]3C)cc1` [Compound I-353], the Emax stood at 115% and the EC50 was found to be 0.0558 nM.

Turning to `COc1ccc(COc2nc3c(cc2C(F)(F)F)CCN(Cc2nc4ccc(C(=O)O)c(F)c4n2C[C@@H]2CCO2)[C@H]3C)cc1` [Compound I-354], the Emax is 122% and the EC50 came out at 0.139 nM.

`C[C@H]1c2nc(OCc3ccc(Cl)cn3)c(C(F)(F)F)cc2CCN1Cc1nc2ccc(C(=O)O)c(F)c2n1C[C@@H]1CCO1` [Compound I-355]: the Emax turned out to be 119% and it took 0.102 nM to reach a half-maximal effect (EC50).

For `C[C@H]1c2nc(OCc3ccc(C4CC4)cc3)c(C(F)(F)F)cc2CCN1Cc1nc2ccc(C(=O)O)c(F)c2n1C[C@@H]1CCO1` [Compound I-356], the Emax was 118% and the concentration giving a half-maximal response (EC50) was found to be 0.25 nM.

Turning to `COc1cc(Cl)ccc1COc1nc2c(cc1C(F)(F)F)CCN(Cc1nc3ccc(C(=O)O)c(F)c3n1C[C@@H]1CCO1)[C@H]2C` [Compound I-357], the Emax amounted to 123% and a half-maximal effect (EC50) was put at 0.0425 nM.

For `C[C@H]1c2nc(OCc3ccc(F)cc3F)c(C(F)(F)F)cc2CCN1Cc1nc2ccc(C(=O)O)c(F)c2n1C[C@@H]1CCO1` [Compound I-359], the Emax was 123% and a half-maximal response (EC50) required 0.0474 nM.

Turning to `C[C@H]1c2nc(OCc3ccc(OC(F)F)cc3F)c(C(F)(F)F)cc2CCN1Cc1nc2ccc(C(=O)O)c(F)c2n1C[C@@H]1CCO1` [Compound I-360], the maximal effect (Emax) came out at 115% and the midpoint of the response, the EC50, lay at 0.104 nM.

On to `C[C@H]1c2nc(OCc3c(F)cc(F)cc3F)c(C(F)(F)F)cc2CCN1Cc1nc2ccc(C(=O)O)c(F)c2n1C[C@@H]1CCO1` [Compound I-361], for which the Emax was 108% and a half-maximal response (EC50) required 0.0778 nM.

On to `C[C@H]1c2nc(OCc3c(F)cc(Cl)cc3F)c(C(F)(F)F)cc2CCN1Cc1nc2ccc(C(=O)O)c(F)c2n1C[C@@H]1CCO1` [Compound I-362], for which the Emax was 133% and the EC50 is 0.0408 nM.

As for `Cc1ccc(COc2nc3c(cc2C(F)(F)F)CCN(Cc2nc4c(F)cc(C(=O)O)cc4n2C[C@@H]2CCO2)[C@H]3C)cc1` [Compound I-363], the Emax came to 115% and the midpoint of the response, the EC50, lay at 0.0911 nM.

For `COc1ccc(COc2nc3c(cc2C(F)(F)F)CCN(Cc2nc4c(F)cc(C(=O)O)cc4n2C[C@@H]2CCO2)[C@H]3C)cc1` [Compound I-364], the Emax was 118% and the EC50 was 0.148 nM.

`C[C@H]1c2nc(OCc3ccc(Cl)cn3)c(C(F)(F)F)cc2CCN1Cc1nc2c(F)cc(C(=O)O)cc2n1C[C@@H]1CCO1` [Compound I-365]: the Emax worked out at 115% and the EC50 was 0.0736 nM.

Take `C[C@H]1c2nc(OCc3ccc(C4CC4)cc3)c(C(F)(F)F)cc2CCN1Cc1nc2c(F)cc(C(=O)O)cc2n1C[C@@H]1CCO1` [Compound I-366]: the Emax was found to be 114% and the EC50 stood at 0.421 nM.
